These results are taken from patent US20230148299A1, “FEM1B PROTEIN BINDING AGENTS AND USES THEREOF” (The Regents Of The University Of California, priority 2020, published 2023).

One assay has as its target FEM1B-FNIP1 (Homo sapiens, UniProt Q9UK73). Put plainly: Fluorescence polarization between FEM1B and FNIP1 (covalent ligand screen). In kind it is binding. Particulars: DMSO = 100, FP between FEM1B and FNIP1; for remaining activity at 5 µM: compound at 5 μM, read-out: Normalized FP 5 μM; for activity at 50 µM: compound at 50 μM, read-out: Normalized FP 50 μM. An excerpt:
FIG. 11. Fluorescence polarization screen to identify functional FEM1B-FNIP1-targeting covalent ligands.
(§1) FEM1B binds a conserved central degron in FNIP1. Deletion analysis of FNIP1 identifies a stretch of 20 amino acids that is required for its binding to FEM1B and its proteasomal degradation. FNIP1 variants were expressed in cells and tested for interaction with ^FLAGFEM1B by co-immunoprecipitation, and for degradation by measuring their abundance in the presence or absence of FEM1B. The FNIP1 degron is required for FEM1B binding and proteasomal degradation. […] FEM1B variants were immunoprecipitated and bound FNIP1 and FLCN were detected by Western blotting. The FNIP1 degron is sufficient to mediate FEM1B-dependent degradation. The FNIP1 degron was fused to GFP (GFP^degron) and expressed from the same plasmid as an IRES controlled mCherry. mCherry provides normalization for GFP fluorescence in each cell. […] Levels of GFP^degron and mCherry were determined by FACS, and their ratio is depicted for presence or absence of FEM1B variants. Deletion of FEM1B prevents FNIP1-degron dependent degradation. The FEM1B locus was deleted in 293T cells using CRISPR/Cas9. Cells were transfected with the GFP^degron/mCherry reporter, and analyzed for GFP and mCherry fluorescence by FACS. FEM1B directly binds the FNIP1 degron in vitro. A TAMRA-labeled FNIP1 degron peptide was incubated with purified FEMIB or the control CRL1 adaptor FBXL17, and binding was measured by fluorescence polarization of the peptide. The FNIP1 degron is sufficient to mediate CUL2^FEM1B-dependent ubiquitylation. The TAMRA-labeled FNIP1 degron was incubated with recombinant CUL2^FEM1B (unmodified or NEDD8-modified), E1, ubiquitin, ATP and the E2 enzymes UBE2D3 and/or UBE2R1. Ubiquitylation was monitored by gel electrophoresis and fluorescence detection.
A general note: Polarisation of emitted light reports the rotation of a fluorescent probe.

The test system of assay [1] is GFP-Fnip1 degron reporter. Put plainly: GFP-Fnip1 degron reporter (GFP/mCherry) by flow cytometry. The format is cell-based. Particulars: GFP/mCherry ratio by FACS. (In general: Flow cytometry measures light scatter and fluorescence of single cells or particles in a stream.)
Procedure: HEK293T cells were transfected 24 hours before flow cytometery with the GFP-Fnip1 degron reporter+/−Fem1b.
FNIP1 variants were expressed in cells and tested for interaction with ^FLAGFEM1B by co-immunoprecipitation, and for degradation by measuring their abundance in the presence or absence of FEM1B. […] FEM1B variants were immunoprecipitated and bound FNIP1 and FLCN were detected by Western blotting. […] The FNIP1 degron was fused to GFP (GFP^degron) and expressed from the same plasmid as an IRES controlled mCherry. mCherry provides normalization for GFP fluorescence in each cell. […] Levels of GFP^degron and mCherry were determined by FACS, and their ratio is depicted for presence or absence of FEM1B variants. […] Cells were transfected with the GFP^degron/mCherry reporter, and analyzed for GFP and mCherry fluorescence by FACS. […] A TAMRA-labeled FNIP1 degron peptide was incubated with purified FEMIB or the control CRL1 adaptor FBXL17, and binding was measured by fluorescence polarization of the peptide. […] The TAMRA-labeled FNIP1 degron was incubated with recombinant CUL2^FEM1B (unmodified or NEDD8-modified), E1, ubiquitin, ATP and the E2 enzymes UBE2D3 and/or UBE2R1. Ubiquitylation was monitored by gel electrophoresis and fluorescence detection.
A further assay has as its target FEM1B (Homo sapiens, UniProt Q9UK73). Put plainly: Fluorescence polarization binding of TAMRA-labeled FNIP1 degron peptide to recombinant FEM1B. As to conditions: degron peptide treated with agent.
Excerpt: as §1, with “The FEM1B locus was deleted in 293T cells using CRISPR/Cas9.” left out, “FEM1B directly binds the FNIP1 degron in vitro.” left out, “The FNIP1 degron is sufficient to mediate CUL2^FEM1B-dependent ubiquitylation. The TAMRA-labeled FNIP1 degron was incubated with recombinant CUL2^FEM1B (unmodified or NEDD8-modified), E1, ubiquitin, ATP and the E2 enzymes UBE2D3 and/or UBE2R1.” left out, “detection. […]” for “detection.”

A further assay has as its target T1, BRD4 (Homo sapiens, UniProt O60885).
T1 construct: endogenous in cells; host or cells: 231MFP breast cancer cells
Put plainly: BRD4 degradation by Western blot in 231MFP breast cancer cells. In kind it is cell-based. Particulars: 231MFP cells, NJH-01-106 12 hours, MZ1 4 hours. The method, then: 231MFP breast cancer cells were treated for 12 hours with NJH-01-106, and 4 hours with known BRD4 PROTAC MZ1. BRD4 and loading control GAPDH levels were assessed by Western blotting following treatment with NJH-01-106 or MZ1, as described above, and are shown in FIG. 4.
Western Blot Protocol. Proteins were resolved by SDS-PAGE (4-20% TGX gels, Bio-Rad Laboratories, Inc.) and transferred to nitrocellulose membranes using the Trans-Blot Turbo transfer system (Bio-Rad). Membranes were blocked with 5% BSA in Tris-buffered saline containing Tween 20 (TBST) solution for 1 h at room temperature, washed in TBST and probed with primary antibody diluted in diluent, as recommended by the various manufacturers, overnight at 4° C. Primary antibodies used were: BRD4 (Cell Signaling Technologies #13440), GAPDH (ProteinTech 60004-1-Ig), FEM1B (ProteinTech 19544-1-AP). Following washes with TBST, the blots were incubated in the dark with secondary antibodies purchased from Li-Cor Biosciences and used at 1:10,000 dilution in 5% BSA in TBST at room temperature for 1 h. Blots were visualized using an Odyssey Li-Cor scanner after additional washes. Protein intensity was quantified using ImageJ software.

Sequence of FEM1B-FNIP1 (Q9UK73 whole entry): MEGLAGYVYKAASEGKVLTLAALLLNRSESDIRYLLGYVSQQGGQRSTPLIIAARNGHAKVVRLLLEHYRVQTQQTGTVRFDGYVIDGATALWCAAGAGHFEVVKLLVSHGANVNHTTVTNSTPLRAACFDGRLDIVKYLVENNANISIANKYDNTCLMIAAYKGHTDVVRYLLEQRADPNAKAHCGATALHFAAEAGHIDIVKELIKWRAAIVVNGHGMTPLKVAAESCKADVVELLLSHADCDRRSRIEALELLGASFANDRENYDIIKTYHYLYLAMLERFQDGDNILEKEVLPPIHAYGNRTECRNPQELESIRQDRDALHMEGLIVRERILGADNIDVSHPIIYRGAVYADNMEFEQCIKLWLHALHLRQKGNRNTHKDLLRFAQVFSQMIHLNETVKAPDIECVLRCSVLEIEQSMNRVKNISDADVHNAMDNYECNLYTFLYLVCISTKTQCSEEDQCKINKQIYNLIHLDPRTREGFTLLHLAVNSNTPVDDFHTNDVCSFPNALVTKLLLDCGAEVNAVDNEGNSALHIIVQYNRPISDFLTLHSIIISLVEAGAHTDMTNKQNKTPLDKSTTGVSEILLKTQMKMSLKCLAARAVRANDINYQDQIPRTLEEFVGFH
Sequence of FEM1B (Q9UK73 whole entry): as above

With `COc1cccc(CN(C(=O)CCl)c2ccc3c(c2)OCCO3)c1` [SB-02-092], on FEM1B-FNIP1, the remaining activity at 5 µM amounted to 54.9% and the activity at 50 µM amounted to 12.6%.
For `CC(C)(C)OC(=O)CN1CCOc2cc(N(CCC#N)C(=O)CCl)ccc21` [NJH-01-093], in that order: 26.5% and 15.2%.
As to `C=CCOc1ccccc1CN(C(=O)CCl)c1ccc2c(c1)OCCO2` [EN-NJH-001], at FEM1B-FNIP1, the remaining activity at 5 µM turned out to be 97.8% and the activity at 50 µM was 19.1%.
Regarding antimycin A, the “stability of GFP^degron reporter” value in assay [1] is reported as “stabilized GFP^degron”.
Regarding `CCN1C(=O)C=CC1=O` [N-ethylmaleimide], the “recognition of FNIP1 degron by FEM1B after treatment of degron with Cys-modifying agent” value at FEM1B was “strongly inhibited its recognition by FEM1B”.
Consider `COc1ccccc1N(CCC#N)C(=O)CCl` [EN-NJH-012], for which, at FEM1B-FNIP1, the remaining activity at 5 µM turned out to be 90.4% and the activity at 50 µM came out at 24.8%.
Consider `N#CCCN(C(=O)CCl)c1ccc(F)cc1` [EN-NJH-015], for which, on FEM1B-FNIP1, the remaining activity at 5 µM is 36.3% and the activity at 50 µM was 16.3%.
For `Cc1cc(C)cc(N(CCC#N)C(=O)CCl)c1` [EN-NJH-017], in that order: 63.7% and 17.4%.
On to `CC(C)C[C@H](NC(=O)[C@H](CCc1ccccc1)NC(=O)CN1CCOCC1)C(=O)N[C@@H](Cc1ccccc1)C(=O)N[C@@H](CC(C)C)C(=O)[C@@]1(C)CO1` [carfilzomib], for which, in assay [1], the “stability of GFP^degron reporter” value is “stabilizes the GFP^degron reporter”.
In the case of `Cc1ccc(N(CCC#N)C(=O)CCl)cc1` [EN-NJH-011], at FEM1B-FNIP1, the remaining activity at 5 µM is 45.8% and the activity at 50 µM was found to be 4.29%.
The like results for `N#CCCN(C(=O)CCl)c1cccc(Cl)c1` [EN-NJH-003] were, in that order, 54.1% and 2.7%.
Consider `CCOc1ccc(N(CCC#N)C(=O)CCl)cc1` [EN-NJH-002], for which, on FEM1B-FNIP1, the remaining activity at 5 µM came to 40.1% and the activity at 50 µM was 8.82%.
Turning to `COc1cc2c(cc1OC)N(C(=O)CCl)CC2` [EN-NJH-020], at FEM1B-FNIP1, the remaining activity at 5 µM was found to be 15.6% and the activity at 50 µM stood at 19.1%.
Turning to `C=CCOc1ccccc1CN(C(=O)CCl)c1ccc2c(c1)OCO2` [EN-NJH-006], on FEM1B-FNIP1, the remaining activity at 5 µM worked out at 89.7% and the activity at 50 µM was 21.5%.
As for `C=CC(=O)N(CCC#N)c1ccc2c(c1)OCCO2` [NJH-01-098], on FEM1B-FNIP1, the remaining activity at 5 µM was 105% and the activity at 50 µM came out at 115%.
As to `CC(Cl)C(=O)N(CCC#N)c1ccccc1` (stereo not drawn) [EN-NJH-008], at FEM1B-FNIP1, the remaining activity at 5 µM was found to be 97.9% and the activity at 50 µM is 113%.
The like results for `CC(=O)N1CCOc2ccc(N(CCC#N)C(=O)CCl)cc21` [NJH-01-085] were, in that order, 31.3% and 14.2%.
For `Cc1cc(N(CCC#N)C(=O)CCl)ccc1Cl` [EN-NJH-018], at FEM1B-FNIP1, the remaining activity at 5 µM came to 16.4% and the activity at 50 µM amounted to 12%.
On to `Cc1sc2c(c1C)C(c1ccc(Cl)cc1)=N[C@@H](CC(=O)NCCCCCNC(=O)CN1CCOc3cc(N(CCC#N)C(=O)CCl)ccc31)c1nnc(C)n1-2` [EN106 linked to BRD4 inhibitor JQ1, (S)-2-chloro-N-(4-(2-((5-(2-(4-(4-chlorophenyl)-2,3,9-trimethyl-6H-thieno[3,2-f][1,2,4]triazolo[4,3-a][1,4]diazepin-6-yl)acetamido)pentyl)amino)-2-oxoethyl)-3,4-dihydro-2H-benzo[b][1,4]oxazin-7-yl)-N-(2-cyanoethyl)acetamide], for which the “degradation of BRD4” value at BRD4 was “degradation of BRD4”.
Consider `O=C(CCl)N(CC=Cc1ccccc1)c1ccc2c(c1)OCCO2` [EN-NJH-021], for which, at FEM1B-FNIP1, the remaining activity at 5 µM is 86.4% and the activity at 50 µM was 26.8%.
Regarding `O=C(CCl)Nc1cc2c(cc1Cl)OCCO2` [EN-NJH-014], at FEM1B-FNIP1, the remaining activity at 5 µM came to 94.8% and the activity at 50 µM was determined as 21.8%.
On to `Cc1ccc(N(CCC#N)C(=O)CCl)cc1C` [EN-NJH-016], for which, on FEM1B-FNIP1, the remaining activity at 5 µM is 43.7% and the activity at 50 µM turned out to be 11.3%.
Turning to `Cc1ncsc1-c1ccc(CNC(=O)[C@@H]2C[C@@H](O)CN2C(=O)[C@@H](NC(=O)COCCOCCOCCNC(=O)C[C@@H]2N=C(c3ccc(Cl)cc3)c3c(sc(C)c3C)-n3c(C)nnc32)C(C)(C)C)cc1` [MZ1, reference compound], the “degradation of BRD4” value on BRD4 is listed as “degradation of BRD4”.
As to `N#CCCN(C(=O)CCl)c1ccccc1` [EN-NJH-019], at FEM1B-FNIP1, the remaining activity at 5 µM came out at 44.1% and the activity at 50 µM came to 19.4%.
The like results for `CC(C)(C)OC(=O)N1CCOc2ccc(N(CCC#N)C(=O)CCl)cc21` [NJH-01-073] were, in that order, 32.8% and 9.87%.
For `O=C(CCl)Nc1ccc2c(c1)OCCO2` [EN-NJH-013], in that order: 93.1% and 21.3%.
The like results for `O=C(CCl)Nc1cc2c(cc1Br)OCCO2` [EN-NJH-007] were, in that order, 87.7% and 11.7%.
With `C#CCCCCNC(=O)CI` [IAyne], the “stability of GFP^degron reporter” value in assay [1] was “stabilizes GFP^degron in cells”.
`N#CCCN(C(=O)CCl)c1ccccc1F` [EN-NJH-010]: at FEM1B-FNIP1, the remaining activity at 5 µM amounted to 46.8% and the activity at 50 µM came to 14.6%.
`NC(=O)CI` [iodoacetamide]: the “recognition of FNIP1 degron by FEM1B after treatment of degron with Cys-modifying agent” value at FEM1B is recorded as “strongly inhibited its recognition by FEM1B”.
With `CC(Cl)C(=O)Nc1ccc2c(c1)OCCO2` (stereo not drawn) [EN-NJH-005], at FEM1B-FNIP1, the remaining activity at 5 µM came out at 98.1% and the activity at 50 µM was determined as 101%.
For `CCN(C(=O)CCl)c1ccc2c(c1)OCO2` [EN-NJH-004], in that order: 76.1% and 11.8%.
`CC(=O)N[C@@H](CS)C(=O)O` [N-acetylcysteine]: in assay [1], the “stability of GFP^degron reporter” value is recorded as “does not affect the stability of the GFP^degron reporter”.
Turning to `O=C(CCl)N(Cc1cccs1)c1ccc2c(c1)OCCO2` [EN-NJH-009], at FEM1B-FNIP1, the remaining activity at 5 µM worked out at 74.8% and the activity at 50 µM came to 6%.
